These are literature values, as cited in patent US10952973B2, “Production method of pregabalin-containing composition and pregabalin-containing composition” (NITTO DENKO CORPORATION, priority 2018, dated 2021).

Molecules are shown by their SMILES.

Turning to `CCCCCCCCCCCCOS(=O)(=O)O` [dodecylsulfuric acid], the “pKa of the acid aqueous solution” value (23° C., 0.35 mol/L aqueous solution) is on record as −3. Take `CC(C)C[C@H](CN)CC(=O)O` [pregabalin, Pregabalin]: the “acid dissociation constant (pKa) of the carboxyl group” value (carboxyl group of pregabalin) was “about 4.2”.
